Source: patent publication US8012972B2, “Pyridinecarboxylic acid (2-aminophenyl) amide derivative having urea structure” (Santen Pharmaceutical Co., Ltd., priority 2007, dated 2011)

Legend:
[1] = system: HDAC (HeLa nuclear extract); assay: Test for evaluation of HDAC inhibitory activity (HDAC Fluorimetric Assay/Drug Discovery Kit, Biomol); assay type: biochemical; conditions: final concentration of test compound 30 μM, rates of more than 100% are shown as 100%
Experimental: Using HDAC Fluorimetric Assay/Drug Discovery Kit (manufactured by Biomol), HDAC inhibitory activity of the present compounds was measured according to the protocol included with the kit. The kit contains Buffer, HeLa nuclear extract (includes HDAC), Substrate, Developer and Trichostatin A (an HDAC inhibitor).
A test compound was dissolved in dimethyl sulfoxide, whereby a 2 mg/mL solution was prepared. Then, the resulting solution was diluted with Buffer containing 5% dimethyl sulfoxide, whereby a 150 μM test compound solution was prepared.
1) To a 384-well culture plate, the test compound solution was added in an amount of 2 μL per well.
2) HeLa nuclear extract was diluted 30-fold with Buffer. The resulting solution was added in an amount of 3 μL per well and then, incubation was performed at 37° C. for 2 hours.
3) Substrate was diluted 500-fold with Buffer. […]
5) The fluorescence intensity of each well was measured using multilabel counter ARVO (manufactured by Wallac) with excitation at 360 nm and emission at 460 nm. […]
Enzyme inhibitory rate (%) was calculated using the following equation. (Enzyme Inhibitory Rate(%))=100×[1−{(Fluorescence Intensity of Test Compound Solution)−(Florescence Intensity of Blank)}/{(Florescence Intensity of Control)−(Florescence Intensity of Blank)}] […]

[2] = system: human trabecular meshwork cell line (TM-1 cells); assay: Effect of morphological change on trabecular meshwork cells (cell shape index, CSI); assay type: cell-based; conditions: final concentration 10 μM, 24 hours, control CSI 0.679, lower CSI indicates greater morphological change
Experimental: As a method for evaluating a cellular morphological change, an evaluation system using the cell shape index (hereinafter referred to as “CSI”) as an index has been reported in The Journal of Clinical Investigation, 103, 1141-1150 (1999). Therefore, according to the method described in the above document, an effect of morphological change of the present compounds on trabecular meshwork cells was evaluated.
A human trabecular meshwork cell line (hereinafter referred to as “TM-1 cells”) reported in Investigative Opthalmology & Visual Science, 43, 151-161 (2002) was used.
Culture medium 1: A reagent was prepared by adding fetal bovine serum (10%), L-glutamine (2 mM), amphotericin B (2.5 μg/mL), and gentamicin (25 μg/mL) to Dulbecco's Modified Eagle Medium (hereinafter referred to as “D-MEM”).
Culture medium 2: Fetal bovine serum (3%), L-glutamine (2 mM), amphotericin B (2.5 μg/mL), and gentamicin (25 μg/mL) were added to D-MEM. […]
10) Using Array Scan Vti HCS reader (manufactured by Cellomics), images of stained cells magnified with a 20-fold objective lens were captured in 80 fields (10 fields×8 wells) per test compound addition group.
11) CSI was calculated for each cell and an average value was obtained for each test compound addition group.
CSI was calculated using the following equation. […]

`Nc1ccccc1NC(=O)c1ccc(CN(CCCN2CCCCC2)C(=O)NCCc2ccccc2)cn1` [Compound 1-3] was tested, and the “Enzyme Inhibitory Rate (%)” value [1] was 100% and the CSI [2] was 0.569.
